# According to patent US8512965B2, “Methods of identifying ligands to sour-taste receptors comprising PKD1L3 and PKDPKD2L1” (Duke University, priority 2006, dated 2013):
# Experiments:
# [1] = molecular target: T1, PKD1L3/PKD2L1 (Mus musculus, UniProt A2A259+Q2EG98, I1053S/I114V/I482V/L203V/Q202H/Y438D); test: Calcium imaging (fluo-4/fura-red) of HEK293T cells transiently co-expressing PKD1L3 and PKD2L1; assay type: cell-based, murine; settings: for calcium response upon stimulation: pH 2.6
# T1 construct: HA (N); expressed in transfected cells; host or cells: HEK293T
# [2] = at the same pH (Ganzevles and Kroeze, 1987; Makhlouf and Bum, 1972); cited from earlier work
# [3] = tested on: taste cells; settings: cited from earlier work
# [4] = tested on: either PKD1L3 or PKD2L1, or neither of them; test: Calcium imaging of HEK293T cells expressing PKD1L3 or PKD2L1 alone, or neither; assay type: cell-based, murine; settings: treated with citric acid
# [5] = cells expressing both PKD1L3 and PKD2L1, citric acid 25 mM, hydrochloric acid at the same pH
# T1 sequence (Q2EG98 21-2151 I1053S): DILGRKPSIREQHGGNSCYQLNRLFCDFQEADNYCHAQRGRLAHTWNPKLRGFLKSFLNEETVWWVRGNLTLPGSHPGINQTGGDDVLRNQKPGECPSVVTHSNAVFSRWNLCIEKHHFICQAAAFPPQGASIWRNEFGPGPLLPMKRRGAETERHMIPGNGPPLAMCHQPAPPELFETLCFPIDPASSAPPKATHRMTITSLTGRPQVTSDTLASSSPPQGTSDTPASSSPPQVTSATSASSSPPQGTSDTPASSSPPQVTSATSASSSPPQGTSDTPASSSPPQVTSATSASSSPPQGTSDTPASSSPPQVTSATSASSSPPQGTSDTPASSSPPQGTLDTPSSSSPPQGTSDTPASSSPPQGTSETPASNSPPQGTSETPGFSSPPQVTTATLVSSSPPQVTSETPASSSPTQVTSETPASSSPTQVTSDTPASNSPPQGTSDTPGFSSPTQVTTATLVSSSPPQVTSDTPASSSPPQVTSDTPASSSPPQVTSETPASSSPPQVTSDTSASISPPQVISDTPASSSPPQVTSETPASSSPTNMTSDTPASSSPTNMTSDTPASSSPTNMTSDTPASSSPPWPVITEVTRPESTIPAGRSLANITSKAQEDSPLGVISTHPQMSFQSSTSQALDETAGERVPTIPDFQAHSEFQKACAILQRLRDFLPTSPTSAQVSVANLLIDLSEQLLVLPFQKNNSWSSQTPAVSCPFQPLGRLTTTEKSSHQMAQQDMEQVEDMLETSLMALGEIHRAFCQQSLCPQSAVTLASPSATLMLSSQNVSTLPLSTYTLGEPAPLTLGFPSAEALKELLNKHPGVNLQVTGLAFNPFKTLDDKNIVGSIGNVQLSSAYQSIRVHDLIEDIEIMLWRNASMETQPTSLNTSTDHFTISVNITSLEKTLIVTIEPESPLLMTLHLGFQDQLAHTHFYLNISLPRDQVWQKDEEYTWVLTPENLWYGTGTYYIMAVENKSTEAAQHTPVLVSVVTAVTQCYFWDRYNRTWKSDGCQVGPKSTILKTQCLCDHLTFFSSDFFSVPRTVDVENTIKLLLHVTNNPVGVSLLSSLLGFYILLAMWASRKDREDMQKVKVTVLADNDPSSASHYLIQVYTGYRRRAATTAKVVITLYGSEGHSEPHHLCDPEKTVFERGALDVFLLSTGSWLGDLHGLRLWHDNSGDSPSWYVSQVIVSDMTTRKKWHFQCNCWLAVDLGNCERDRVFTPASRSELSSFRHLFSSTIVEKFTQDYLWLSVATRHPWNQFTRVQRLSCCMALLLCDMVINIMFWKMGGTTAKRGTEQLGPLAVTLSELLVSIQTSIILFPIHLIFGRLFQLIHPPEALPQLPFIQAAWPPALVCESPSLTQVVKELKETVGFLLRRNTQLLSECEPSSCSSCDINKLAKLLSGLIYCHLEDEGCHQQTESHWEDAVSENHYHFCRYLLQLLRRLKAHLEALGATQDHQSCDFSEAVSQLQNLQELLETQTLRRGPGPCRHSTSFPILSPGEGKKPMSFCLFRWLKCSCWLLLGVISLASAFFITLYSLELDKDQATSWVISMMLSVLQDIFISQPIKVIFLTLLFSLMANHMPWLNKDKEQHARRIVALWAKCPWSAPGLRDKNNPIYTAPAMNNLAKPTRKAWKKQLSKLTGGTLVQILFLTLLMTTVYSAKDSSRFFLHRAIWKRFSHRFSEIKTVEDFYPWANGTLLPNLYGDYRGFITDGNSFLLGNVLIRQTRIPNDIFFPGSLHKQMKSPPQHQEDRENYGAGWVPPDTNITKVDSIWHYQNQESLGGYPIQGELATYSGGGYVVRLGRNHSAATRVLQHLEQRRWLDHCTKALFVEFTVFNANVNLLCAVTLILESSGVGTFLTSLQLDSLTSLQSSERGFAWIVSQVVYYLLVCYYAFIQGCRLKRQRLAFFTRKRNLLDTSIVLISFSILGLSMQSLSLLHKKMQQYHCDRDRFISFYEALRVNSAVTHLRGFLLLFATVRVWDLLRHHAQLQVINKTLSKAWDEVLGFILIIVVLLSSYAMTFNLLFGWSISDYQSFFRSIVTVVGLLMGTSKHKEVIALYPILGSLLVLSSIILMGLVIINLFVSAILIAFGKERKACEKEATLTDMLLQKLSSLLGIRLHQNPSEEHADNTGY
# T1 sequence (A2A259 whole entry I114V/Q202H/L203V/Y438D/I482V): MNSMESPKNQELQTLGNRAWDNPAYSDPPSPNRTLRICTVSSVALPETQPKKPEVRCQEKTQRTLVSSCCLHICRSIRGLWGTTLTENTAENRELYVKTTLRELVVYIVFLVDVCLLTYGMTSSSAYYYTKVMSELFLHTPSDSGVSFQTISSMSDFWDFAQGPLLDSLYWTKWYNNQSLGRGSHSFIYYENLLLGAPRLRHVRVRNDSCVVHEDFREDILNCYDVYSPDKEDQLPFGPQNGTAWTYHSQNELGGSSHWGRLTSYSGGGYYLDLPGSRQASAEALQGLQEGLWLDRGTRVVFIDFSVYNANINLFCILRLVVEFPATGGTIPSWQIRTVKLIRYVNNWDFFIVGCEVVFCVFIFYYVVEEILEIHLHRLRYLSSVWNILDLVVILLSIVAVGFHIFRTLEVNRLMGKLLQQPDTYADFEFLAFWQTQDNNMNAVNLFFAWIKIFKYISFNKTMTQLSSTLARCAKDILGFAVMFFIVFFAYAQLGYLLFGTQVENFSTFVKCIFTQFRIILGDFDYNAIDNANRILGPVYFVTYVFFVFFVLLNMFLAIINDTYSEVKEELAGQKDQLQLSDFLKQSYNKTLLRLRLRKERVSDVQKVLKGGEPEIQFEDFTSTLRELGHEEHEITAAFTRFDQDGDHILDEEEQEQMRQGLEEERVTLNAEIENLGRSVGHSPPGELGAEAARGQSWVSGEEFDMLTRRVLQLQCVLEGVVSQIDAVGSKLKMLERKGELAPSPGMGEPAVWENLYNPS
structure (smiles),measurement,setting,value
[Cl-].[Na+] [NaCl],calcium response upon stimulation,[1],did not respond
CC(=O)O [acetic acid],sour taste relative to hydrochloric acid,[2],more sour than hydrochloric acid
N=C(N)NC(=O)c1nc(Cl)c(N)nc1N [amiloride],inhibition of function of the two protein heteromer,[1]; ASIC inhibitor / HCN inhibitor applied,not inhibited
O=C(O)CC(O)(CC(=O)O)C(=O)O [citric acid],taste cells activated,"[3]; calcium imaging of taste bud slices (Caicedo et al., 2002; Richter et al., 2003)",23-25%
same,potency as sour ligand relative to hydrochloric acid,"[3]; mouse taste tissue slices, same pH (Richter et al., 2003)",more potent sour ligand than hydrochloric acid
same,sour taste relative to hydrochloric acid,[2],more sour than hydrochloric acid
same,calcium response upon stimulation,[4],little or no calcium response
same,potency in activating PKD1L3/PKD2L1 heteromers relative to hydrochloric acid,[1]; at the same pH,more potent than hydrochloric acid
same,calcium response upon stimulation,[1]; [5],responded
same,calcium response with extracellular calcium ions eliminated from the bath solution,"[1]; cells expressing both proteins, no extracellular calcium",abolished
C[C@@H]1C[C@@H]([C@H](O)CC2CC(=O)NC(=O)C2)C(=O)[C@@H](C)C1 [cyclohexamide],calcium response upon stimulation,[1],did not respond
Cl [hydrochloric acid],calcium response upon stimulation,[1],much less of a calcium response
C=C[C@H]1C[N@@]2CC[C@H]1C[C@H]2[C@H](O)c1ccnc2ccc(OC)cc12 [quinine],calcium response upon stimulation,[1]; [5],did not respond
O=C1NS(=O)(=O)c2ccccc21 [saccharin],calcium response upon stimulation,[1]; [5],did not respond
OC[C@H]1O[C@@](CO)(O[C@H]2O[C@H](CO)[C@@H](O)[C@H](O)[C@H]2O)[C@@H](O)[C@@H]1O [sucrose],calcium response upon stimulation,[1]; [5],did not respond
